Data: publication PMC10999558, “Analyzing resistome in soil and Human gut: a study on the characterization and risk evaluation of antimicrobial peptide resistance” (Frontiers in Microbiology, 2024)

Assays:
Format in all cases: cell-based, Escherichia coli
Details in all cases: MHB, 37°C, 24 h, triplicate
E. coli DH5α = assay: MIC, broth microdilution, E. coli DH5α carrying pUC118 or resistance-conferring plasmids
Experimental: (§1) Escherichia coli DH5α, E. coli BL21(DE3), and E. coli JM109 were utilized in this study.
(§2) The MICs were determined using the broth microdilution method in 96-well microtiter plates ([Wiegand et al., 2008]). In brief, a 1:100 dilution of the mid-exponential phase bacterial culture (OD600 = 0.5), consisting of 5 μL (1 × 10^5 CFU/mL), was introduced into polypropylene 96-well plates. These plates contained a two-fold dilution series of AMP in a total volume of 100 μL MHB per well. The incubation of the plates occurred at 37°C in a humidity chamber. The MIC was identified as the lowest concentration that hindered visible bacterial growth after 24 h of incubation. Each experiment was conducted in triplicate.
(§3) Following validation, the colonies displaying resistance underwent additional testing via MIC assessments for the remaining four AMPs that were not employed during the selection process. This experimental procedure was carried out in triplicate.

E. coli JM109 = assay: MIC, broth microdilution, retransformed E. coli JM109
Experimental: as §1, §2
(§4) Before washing down the colonies, we randomly selected two clones from each plate containing distinct AMP. Colony PCRs were conducted using M13 primer pairs to validate the presence of inserts and determine their sizes. The selected colonies were then subjected to sequencing. The specific details are provided in Supplementary Table S2. Following that, plasmids were isolated using the Plasmid Midiprep Kit (Zomanbio, ZP103) following the manufacturer’s guidelines. After the plasmids were successfully reintroduced into E. coli JM109 and E. coli BL 21(DE3), the MICs of the transformed strains against the AMP used for selection were tested. This testing process was carried out in triplicate.
as §3

E. coli BL21(DE3) = assay: MIC, broth microdilution, retransformed E. coli BL21(DE3)
Experimental: as §1, §2, §4, §3

Substance: Iseganan [IB367]
- MIC (E. coli DH5α; E. coli DH5α containing pUC118 plasmids): 16 µg/mL
- MIC (E. coli DH5α; colony pUC118-DH5α (control, no insert)): 16 µg/mL
- MIC (E. coli DH5α; colony pUC118-FCST1-DH5α (feces insert 1 selected against colistin)): 16 µg/mL
- MIC (E. coli DH5α; colony pUC118-FCST2-DH5α (feces insert 2 selected against colistin)): 16 µg/mL
- MIC (E. coli DH5α; colony pUC118-FGQ1-DH5α (feces insert 1 selected against melittin)): 16 µg/mL
- MIC (E. coli DH5α; colony pUC118-FGQ2-DH5α (feces insert 2 selected against melittin)): 32 µg/mL
- MIC (E. coli DH5α; colony pUC118-FIB1-DH5α (feces insert 1 selected against iseganan)): 32 µg/mL
- MIC (E. coli DH5α; colony pUC118-FIB2-DH5α (feces insert 2 selected against iseganan)): 32 µg/mL
- MIC (E. coli DH5α; colony pUC118-FPB1-DH5α (feces insert 1 selected against polymyxin B)): 32 µg/mL
- MIC (E. coli DH5α; colony pUC118-FPB2-DH5α (feces insert 2 selected against polymyxin B)): 16 µg/mL
- MIC (E. coli DH5α; colony pUC118-FSA1-DH5α (feces insert 1 selected against cathelicidin-DM)): 16 µg/mL
- MIC (E. coli DH5α; colony pUC118-FSA2-DH5α (feces insert 2 selected against cathelicidin-DM)): 16 µg/mL
- MIC (E. coli DH5α; colony pUC118-SCST1-DH5α (soil insert 1 selected against colistin)): 16 µg/mL
- MIC (E. coli DH5α; colony pUC118-SCST2-DH5α (soil insert 2 selected against colistin)): 16 µg/mL
- MIC (E. coli DH5α; colony pUC118-SGQ1-DH5α (soil insert 1 selected against melittin)): 16 µg/mL
- MIC (E. coli DH5α; colony pUC118-SGQ2-DH5α (soil insert 2 selected against melittin)): 16 µg/mL
- MIC (E. coli DH5α; colony pUC118-SIB1-DH5α (soil insert 1 selected against iseganan)): 32 µg/mL
- MIC (E. coli DH5α; colony pUC118-SIB2-DH5α (soil insert 2 selected against iseganan)): 32 µg/mL
- MIC (E. coli DH5α; colony pUC118-SPB1-DH5α (soil insert 1 selected against polymyxin B)): 16 µg/mL
- MIC (E. coli DH5α; colony pUC118-SPB2-DH5α (soil insert 2 selected against polymyxin B)): 16 µg/mL
- MIC (E. coli DH5α; colony pUC118-SSA1-DH5α (soil insert 1 selected against cathelicidin-DM)): 32 µg/mL
- MIC (E. coli DH5α; colony pUC118-SSA2-DH5α (soil insert 2 selected against cathelicidin-DM)): 32 µg/mL
- MIC (E. coli JM109; colony pUC118-FCST1-JM109 (feces insert 1 selected against colistin)): 8 µg/mL
- MIC (E. coli JM109; colony pUC118-FCST2-JM109 (feces insert 2 selected against colistin)): 8 µg/mL
- MIC (E. coli JM109; colony pUC118-FGQ1-JM109 (feces insert 1 selected against melittin)): 8 µg/mL
- MIC (E. coli JM109; colony pUC118-FGQ2-JM109 (feces insert 2 selected against melittin)): 16 µg/mL
- MIC (E. coli JM109; colony pUC118-FIB1-JM109 (feces insert 1 selected against iseganan)): 16 µg/mL
- MIC (E. coli JM109; colony pUC118-FIB2-JM109 (feces insert 2 selected against iseganan)): 32 µg/mL
- MIC (E. coli JM109; colony pUC118-FPB1-JM109 (feces insert 1 selected against polymyxin B)): 32 µg/mL
- MIC (E. coli JM109; colony pUC118-FPB2-JM109 (feces insert 2 selected against polymyxin B)): 8 µg/mL
- MIC (E. coli JM109; colony pUC118-FSA1-JM109 (feces insert 1 selected against cathelicidin-DM)): 8 µg/mL
- MIC (E. coli JM109; colony pUC118-FSA2-JM109 (feces insert 2 selected against cathelicidin-DM)): 8 µg/mL
- MIC (E. coli JM109; colony pUC118-JM109 (control, no insert)): 8 µg/mL
- MIC (E. coli JM109; colony pUC118-SCST1-JM109 (soil insert 1 selected against colistin)): 8 µg/mL
- MIC (E. coli JM109; colony pUC118-SCST2-JM109 (soil insert 2 selected against colistin)): 8 µg/mL
- MIC (E. coli JM109; colony pUC118-SGQ1-JM109 (soil insert 1 selected against melittin)): 8 µg/mL
- MIC (E. coli JM109; colony pUC118-SGQ2-JM109 (soil insert 2 selected against melittin)): 8 µg/mL
- MIC (E. coli JM109; colony pUC118-SIB1-JM109 (soil insert 1 selected against iseganan)): 32 µg/mL
- MIC (E. coli JM109; colony pUC118-SIB2-JM109 (soil insert 2 selected against iseganan)): 16 µg/mL
- MIC (E. coli JM109; colony pUC118-SPB1-JM109 (soil insert 1 selected against polymyxin B)): 8 µg/mL
- MIC (E. coli JM109; colony pUC118-SPB2-JM109 (soil insert 2 selected against polymyxin B)): 8 µg/mL
- MIC (E. coli JM109; colony pUC118-SSA1-JM109 (soil insert 1 selected against cathelicidin-DM)): 16 µg/mL
- MIC (E. coli JM109; colony pUC118-SSA2-JM109 (soil insert 2 selected against cathelicidin-DM)): 16 µg/mL
- MIC (E. coli BL21(DE3); colony pUC118-BL21(DE3) (control, no insert)): 16 µg/mL
- MIC (E. coli BL21(DE3); colony pUC118-FCST1-BL21(DE3) (feces insert 1 selected against colistin)): 16 µg/mL
- MIC (E. coli BL21(DE3); colony pUC118-FCST2-BL21(DE3) (feces insert 2 selected against colistin)): 16 µg/mL
- MIC (E. coli BL21(DE3); colony pUC118-FGQ1-BL21(DE3) (feces insert 1 selected against melittin)): 16 µg/mL
- MIC (E. coli BL21(DE3); colony pUC118-FGQ2- BL21(DE3) (feces insert 2 selected against melittin)): 32 µg/mL
- MIC (E. coli BL21(DE3); colony pUC118-FIB1-BL21(DE3) (feces insert 1 selected against iseganan)): 32 µg/mL
- MIC (E. coli BL21(DE3); colony pUC118-FIB2-BL21(DE3) (feces insert 2 selected against iseganan)): 32 µg/mL
- MIC (E. coli BL21(DE3); colony pUC118-FPB1-BL21(DE3) (feces insert 1 selected against polymyxin B)): 32 µg/mL
- MIC (E. coli BL21(DE3); colony pUC118-FPB2-BL21(DE3) (feces insert 2 selected against polymyxin B)): 16 µg/mL
- MIC (E. coli BL21(DE3); colony pUC118-FSA1-BL21(DE3) (feces insert 1 selected against cathelicidin-DM)): 16 µg/mL
- MIC (E. coli BL21(DE3); colony pUC118-FSA2-BL21(DE3) (feces insert 2 selected against cathelicidin-DM)): 16 µg/mL
- MIC (E. coli BL21(DE3); colony pUC118-SCST1-BL21(DE3) (soil insert 1 selected against colistin)): 16 µg/mL
- MIC (E. coli BL21(DE3); colony pUC118-SCST2-BL21(DE3) (soil insert 2 selected against colistin)): 16 µg/mL
- MIC (E. coli BL21(DE3); colony pUC118-SGQ1-BL21(DE3) (soil insert 1 selected against melittin)): 16 µg/mL
- MIC (E. coli BL21(DE3); colony pUC118-SGQ2-BL21(DE3) (soil insert 2 selected against melittin)): 16 µg/mL
- MIC (E. coli BL21(DE3); colony pUC118-SIB1-BL21(DE3) (soil insert 1 selected against iseganan)): 32 µg/mL
- MIC (E. coli BL21(DE3); colony pUC118-SIB2-BL21(DE3) (soil insert 2 selected against iseganan)): 32 µg/mL
- MIC (E. coli BL21(DE3); colony pUC118-SPB1-BL21(DE3) (soil insert 1 selected against polymyxin B)): 16 µg/mL
- MIC (E. coli BL21(DE3); colony pUC118-SPB2-BL21(DE3) (soil insert 2 selected against polymyxin B)): 16 µg/mL
- MIC (E. coli BL21(DE3); colony pUC118-SSA1-BL21(DE3) (soil insert 1 selected against cathelicidin-DM)): 32 µg/mL
- MIC (E. coli BL21(DE3); colony pUC118-SSA2-BL21(DE3) (soil insert 2 selected against cathelicidin-DM)): 16 µg/mL
